Test system: DOHH2 and TMD8 DLBCL cells
Experiment: Gene expression profiling (HumanHT-12 v4 BeadChip, limma), ST7612AA1 300 nM 8 hrs vs DMSO
Assay type: cell-based, human
[1] = 300 nM, 8 hours, fold change > 1.5, adjusted p-value < 0.005

## CC(=O)SCCCCC[C@H](NC(=O)[C@H]1CCC(=O)N1)C(=O)Nc1ccccc1 [ST7612AA1]
300 nM 8 hrs vs DMSO
  log ratio TCEA2 (probe ILMN_1665526): 8.50E-01
  log ratio TCEAL3 (probe ILMN_1734190): 7.88E-01
  log ratio TCERG1 (ILMN_1706839): -8.49E-01
  log ratio TCFL5 (ILMN_1814247): 6.07E-01
  log ratio TCTN1 (probe ILMN_1685124): 7.81E-01
  log ratio TESK2 (probe ILMN_1654370): 8.37E-01
  log ratio TFB2M (ILMN_2067709): -7.83E-01
  log ratio THOC6 (ILMN_1679880): -5.93E-01
  log ratio THUMPD2 (ILMN_1787511): -6.05E-01
  log ratio TIMM10 (ILMN_1765332): -1.04E+00
  log ratio TLK1 (ILMN_1811029): -9.26E-01
  log ratio TMBIM4 (ILMN_1664750): -9.76E-01
  log ratio TMED1 (ILMN_1693045): -9.13E-01
  log ratio TMEM14A (probe ILMN_1785191): 7.29E-01
  log ratio TMEM49 (probe ILMN_1692754): 8.49E-01
  log ratio TMEM154 (probe ILMN_2088124): 6.89E-01
  log ratio TMEM179B (ILMN_3241979): 5.96E-01
  log ratio TMEM184B (ILMN_1747460): 6.31E-01
  log ratio TMEM199 (ILMN_1748481): -6.12E-01
  log ratio TMOD2 (probe ILMN_3250273): 7.57E-01
  log ratio TMPO (ILMN_1768816): -8.22E-01
  log ratio TNFRSF17 (ILMN_1768016): -1.76E+00
  log ratio TOB1 (ILMN_1672004): 6.63E-01
  log ratio TPRG1L (probe ILMN_1727479): 7.86E-01
  log ratio TPST1 (probe ILMN_1651950): 7.51E-01
  log ratio TPST2 (probe ILMN_1695432): 7.18E-01
  log ratio TRAFD1 (probe ILMN_1758250): 8.52E-01
  log ratio TRIM4 (ILMN_2323385): 6.43E-01
  log ratio TRIM6 (ILMN_1656910): 5.98E-01
  log ratio TRIM8 (ILMN_1746704): -8.66E-01
  log ratio TRIM21 (ILMN_1678054): -8.09E-01
  log ratio TRIM22 (ILMN_1779252): -8.73E-01
  log ratio TRIP6 (ILMN_1713990): -1.16E+00
  log ratio TRMT1 (ILMN_1812940): -8.45E-01
  log ratio TRMT11 (ILMN_1805481): -8.20E-01
  log ratio TSEN2 (ILMN_1746393): -8.42E-01
  log ratio TSPAN4 (ILMN_2340027): 5.99E-01
  log ratio TTC27 (ILMN_1757730): -1.28E+00
  log ratio TTLL12 (ILMN_1663113): -6.01E-01
  log ratio TUBG2 (ILMN_1701052): 6.65E-01
  log ratio TXNDC14 (ILMN_1799367): -8.38E-01
  log ratio TYMS (ILMN_1806040): -1.10E+00
  log ratio TYSND1 (ILMN_1775677): -1.15E+00
  log ratio TYW3 (ILMN_1726842): -9.88E-01
  log ratio U2AF2 (ILMN_1768930): -1.25E+00
  log ratio UBE2A (probe ILMN_2307455): 7.18E-01
  log ratio UBE2C (ILMN_2265654): -7.99E-01
  log ratio UBE2D4 (ILMN_1707084): -8.99E-01
  log ratio UBE2H (ILMN_1757644): 6.49E-01
  log ratio UBE2J1 (ILMN_1713759): -1.05E+00
  log ratio UBTD1 (probe ILMN_1794914): 8.56E-01
  log ratio UBXN8 (ILMN_1731891): -8.44E-01
  log ratio UCK2 (ILMN_1768662): -9.43E-01
  log ratio UCP2 (probe ILMN_1685625): 7.30E-01
  log ratio UNC45A (ILMN_1726434): 6.72E-01
  log ratio UNC84A (probe ILMN_1772316): 7.21E-01
  log ratio UNG (ILMN_1683120): -1.39E+00
  log ratio UPLP (probe ILMN_3236765): 7.46E-01
  log ratio UPP1 (ILMN_1798256): 6.07E-01
  log ratio URB2 (ILMN_3249406): -5.93E-01
  log ratio USP13 (ILMN_3251526): -5.97E-01
  log ratio VASH2 (probe ILMN_1692698): 7.31E-01
  log ratio VPS8 (probe ILMN_1678268): 7.47E-01
  log ratio VRK2 (ILMN_1750088): -9.87E-01
  log ratio VRK3 (ILMN_1771697): 6.75E-01
  log ratio WARS2 (ILMN_2323979): -5.97E-01
  log ratio WDR12 (ILMN_1770692): -7.92E-01
  log ratio WDR12 (ILMN_2045729): -8.64E-01
  log ratio WDR19 (probe ILMN_1655117): 7.77E-01
  log ratio WIBG (ILMN_1751431): -1.01E+00
  log ratio WIPI2 (ILMN_2321292): 6.22E-01
  log ratio WNK1 (ILMN_1876924): 6.14E-01
  log ratio YARS2 (ILMN_1782635): -8.22E-01
  log ratio YDJC (ILMN_1812580): -8.57E-01
  log ratio YPEL3 (ILMN_1791147): 6.17E-01
  log ratio YPEL5 (probe ILMN_1711069): 6.99E-01
  log ratio YRDC (ILMN_2061732): -8.81E-01
  log ratio ZBTB42 (ILMN_3239445): 6.62E-01
  log ratio ZDHHC8 (probe ILMN_1789492): 8.85E-01
  log ratio ZFP161 (ILMN_1772522): -5.98E-01
  log ratio ZFX (ILMN_1687484): -6.10E-01
  log ratio ZMAT3 (ILMN_1654262): 5.95E-01
  log ratio ZMYND11 (ILMN_1754234): -1.27E+00
  log ratio ZNF385A (ILMN_1786722): 6.67E-01
  log ratio ZNF532 (ILMN_1731358): -8.77E-01
  log ratio ZNF689 (ILMN_1759008): -8.10E-01
  log ratio ZNF692 (ILMN_1800750): -5.98E-01
  log ratio ZNF775 (probe ILMN_1691702): 7.39E-01
  log ratio ZNF791 (ILMN_1758105): 6.65E-01
  log ratio ZNHIT1 (ILMN_1741491): 6.13E-01
  log ratio ZNRD1 (ILMN_1692486): -8.14E-01
  log ratio ZNRD1 (ILMN_2398587): -8.04E-01
  log ratio ZSCAN16 (ILMN_1809566): 6.84E-01
  log ratio ZZZ3 (ILMN_1653618): -7.87E-01
  log ratio probe ILMN_1862217 (no symbol): 6.82E-01
  log ratio probe ILMN_1865056 (no symbol): 5.95E-01
  log ratio probe ILMN_1880086 (no symbol): 6.47E-01
  log ratio probe ILMN_1886515 (no symbol given): -8.79E-01
[1]
  number of genes down-regulated: 563 genes
  number of genes up-regulated: 674 genes
2000-08-31 ILMN_1776157
  AveExpr.ST7612: 9.23E-01
  log ratio: 9.23E-01
ABHD8 ILMN_1712707
  AveExpr.ST7612: 9.18E-01
  log ratio: 9.18E-01
ACBD7 ILMN_1726388
  AveExpr.ST7612: 1.07E+00
  log ratio: 1.07E+00
ADRB2 ILMN_1695590
  AveExpr.ST7612: 1.02E+00
  log ratio: 1.02E+00
ANG ILMN_1760727
  AveExpr.ST7612: 1.06E+00
  log ratio: 1.06E+00
ANKRD13A ILMN_1689908
  AveExpr.ST7612: 1.03E+00
  log ratio: 1.03E+00
ATP6V0D1 ILMN_1795826
  AveExpr.ST7612: 1.00E+00
  log ratio: 1.00E+00
ATP6V1A ILMN_1711516
  AveExpr.ST7612: 9.54E-01
  log ratio: 9.54E-01
BAG3 ILMN_1659766
  AveExpr.ST7612: 1.06E+00
  log ratio: 1.06E+00
BLVRA ILMN_1691436
  AveExpr.ST7612: 1.07E+00
  log ratio: 1.07E+00
BMP6 ILMN_1747650
  AveExpr.ST7612: 1.06E+00
  log ratio: 1.06E+00
C9orf95 ILMN_1674650
  AveExpr.ST7612: 9.57E-01
  log ratio: 9.57E-01
C16orf93 ILMN_2179726
  AveExpr.ST7612: 9.06E-01
  log ratio: 9.06E-01
CA2 ILMN_1662795
  AveExpr.ST7612: 1.03E+00
  log ratio: 1.03E+00
CBLB ILMN_1685580
  AveExpr.ST7612: 9.03E-01
  log ratio: 9.03E-01
CLEC16A ILMN_1781752
  AveExpr.ST7612: 1.06E+00
  log ratio: 1.06E+00
CPNE3 ILMN_1773576
  AveExpr.ST7612: 9.17E-01
  log ratio: 9.17E-01
CRIP2 ILMN_1694432
  AveExpr.ST7612: 1.09E+00
  log ratio: 1.09E+00
DENND5A ILMN_1785356
  AveExpr.ST7612: 1.07E+00
  log ratio: 1.07E+00
DENND5A ILMN_3245413
  AveExpr.ST7612: 1.02E+00
  log ratio: 1.02E+00
DNMT3B ILMN_2328972
  AveExpr.ST7612: 1.03E+00
  log ratio: 1.03E+00
EFNA1 ILMN_2371055
  AveExpr.ST7612: 1.05E+00
  log ratio: 1.05E+00
EXTL2 ILMN_1797950
  AveExpr.ST7612: 1.08E+00
  log ratio: 1.08E+00
FAM46C ILMN_1713266
  AveExpr.ST7612: 1.07E+00
  log ratio: 1.07E+00
FAM89B ILMN_1804117
  AveExpr.ST7612: 1.06E+00
  log ratio: 1.06E+00

Source: paper PMC4467398, “Preclinical antitumor activity of ST7612AA1: a new oral thiol-based histone deacetylase (HDAC) inhibitor” (Oncotarget, 2014)
